Data reported in patent publication US9682026B2, “Oral care product and methods of use and manufacture thereof” (Colgate-Palmolive Company, priority 2008, dated 2017).

Tested on: S. sanguis
Assay: Ammonia production by S. sanguis at pH 4.0
Format: cell-based
Details: 5 millimolar amino acid, 0.1% sucrose, pH 4.0, 37° C., 30 minutes; mean of 6 trials
Description: An overnight culture of S. sanguis was grown at 37° C. in trypticase soy broth (Becton Dickinson, Sparks, Md.). The culture was centrifuged at 5,000 rpm for 5 minutes at 1 milliliter at a time into preweighed tubes in order to accumulate approximately 5 milligrams of wet pellet weight. The pellet was then resuspended into 20 millimolar potassium phosphate buffer (J T Baker, Phillipsburg, N.J.), pH 4.0, to simulate a stressed environment for the bacterial cell where ammonia would be produced for survival. The final concentration was 5 milligram per milliliter. To this final concentration, a 5 millimolar final concentration of L-arginine, L-citrulline, or L-ornithine was added along with a 0.1% final concentration of sucrose (VWR, West Chester, Pa.). This mixture was then incubated at 37° C. in a shaking water bath for 30 minutes before ammonia production was determined.
In order to analyze for ammonia, an Ammonia Assay kit was used from Diagnostic Chemicals Limited (Oxford, Conn.). The intended use of this specific kit is for the in vitro quantification of ammonia in plasma, but the procedure was modified in order to determine and quantify the ammonia production in plaque and/or bacteria.

Row | Compound | Ammonia (ppm), Mean
1 | N=C(N)NCCC[C@H](N)C(=O)O [L-Arginine, L-arginine] | 1.06 ppm
2 | NC(=O)NCCC[C@H](N)C(=O)O [L-Citrulline, L-citrulline] | 0.951 ppm
3 | NCCC[C@H](N)C(=O)O [L-Ornithine, L-ornithine] | 0.134 ppm
